The results in this text go back to patent publication US10392391B2 (Vertex Pharmaceuticals Incorporated, priority 2012, dated 2019).

The target of the first assay is ATR kinase (full-length ATR) (Homo sapiens (Human), UniProt Q13535). The experiment in a line: ATR inhibition assay (radioactive-phosphate incorporation). It is filed as biochemical.
ATR kinase (full-length ATR), sequence (Q13535 whole entry): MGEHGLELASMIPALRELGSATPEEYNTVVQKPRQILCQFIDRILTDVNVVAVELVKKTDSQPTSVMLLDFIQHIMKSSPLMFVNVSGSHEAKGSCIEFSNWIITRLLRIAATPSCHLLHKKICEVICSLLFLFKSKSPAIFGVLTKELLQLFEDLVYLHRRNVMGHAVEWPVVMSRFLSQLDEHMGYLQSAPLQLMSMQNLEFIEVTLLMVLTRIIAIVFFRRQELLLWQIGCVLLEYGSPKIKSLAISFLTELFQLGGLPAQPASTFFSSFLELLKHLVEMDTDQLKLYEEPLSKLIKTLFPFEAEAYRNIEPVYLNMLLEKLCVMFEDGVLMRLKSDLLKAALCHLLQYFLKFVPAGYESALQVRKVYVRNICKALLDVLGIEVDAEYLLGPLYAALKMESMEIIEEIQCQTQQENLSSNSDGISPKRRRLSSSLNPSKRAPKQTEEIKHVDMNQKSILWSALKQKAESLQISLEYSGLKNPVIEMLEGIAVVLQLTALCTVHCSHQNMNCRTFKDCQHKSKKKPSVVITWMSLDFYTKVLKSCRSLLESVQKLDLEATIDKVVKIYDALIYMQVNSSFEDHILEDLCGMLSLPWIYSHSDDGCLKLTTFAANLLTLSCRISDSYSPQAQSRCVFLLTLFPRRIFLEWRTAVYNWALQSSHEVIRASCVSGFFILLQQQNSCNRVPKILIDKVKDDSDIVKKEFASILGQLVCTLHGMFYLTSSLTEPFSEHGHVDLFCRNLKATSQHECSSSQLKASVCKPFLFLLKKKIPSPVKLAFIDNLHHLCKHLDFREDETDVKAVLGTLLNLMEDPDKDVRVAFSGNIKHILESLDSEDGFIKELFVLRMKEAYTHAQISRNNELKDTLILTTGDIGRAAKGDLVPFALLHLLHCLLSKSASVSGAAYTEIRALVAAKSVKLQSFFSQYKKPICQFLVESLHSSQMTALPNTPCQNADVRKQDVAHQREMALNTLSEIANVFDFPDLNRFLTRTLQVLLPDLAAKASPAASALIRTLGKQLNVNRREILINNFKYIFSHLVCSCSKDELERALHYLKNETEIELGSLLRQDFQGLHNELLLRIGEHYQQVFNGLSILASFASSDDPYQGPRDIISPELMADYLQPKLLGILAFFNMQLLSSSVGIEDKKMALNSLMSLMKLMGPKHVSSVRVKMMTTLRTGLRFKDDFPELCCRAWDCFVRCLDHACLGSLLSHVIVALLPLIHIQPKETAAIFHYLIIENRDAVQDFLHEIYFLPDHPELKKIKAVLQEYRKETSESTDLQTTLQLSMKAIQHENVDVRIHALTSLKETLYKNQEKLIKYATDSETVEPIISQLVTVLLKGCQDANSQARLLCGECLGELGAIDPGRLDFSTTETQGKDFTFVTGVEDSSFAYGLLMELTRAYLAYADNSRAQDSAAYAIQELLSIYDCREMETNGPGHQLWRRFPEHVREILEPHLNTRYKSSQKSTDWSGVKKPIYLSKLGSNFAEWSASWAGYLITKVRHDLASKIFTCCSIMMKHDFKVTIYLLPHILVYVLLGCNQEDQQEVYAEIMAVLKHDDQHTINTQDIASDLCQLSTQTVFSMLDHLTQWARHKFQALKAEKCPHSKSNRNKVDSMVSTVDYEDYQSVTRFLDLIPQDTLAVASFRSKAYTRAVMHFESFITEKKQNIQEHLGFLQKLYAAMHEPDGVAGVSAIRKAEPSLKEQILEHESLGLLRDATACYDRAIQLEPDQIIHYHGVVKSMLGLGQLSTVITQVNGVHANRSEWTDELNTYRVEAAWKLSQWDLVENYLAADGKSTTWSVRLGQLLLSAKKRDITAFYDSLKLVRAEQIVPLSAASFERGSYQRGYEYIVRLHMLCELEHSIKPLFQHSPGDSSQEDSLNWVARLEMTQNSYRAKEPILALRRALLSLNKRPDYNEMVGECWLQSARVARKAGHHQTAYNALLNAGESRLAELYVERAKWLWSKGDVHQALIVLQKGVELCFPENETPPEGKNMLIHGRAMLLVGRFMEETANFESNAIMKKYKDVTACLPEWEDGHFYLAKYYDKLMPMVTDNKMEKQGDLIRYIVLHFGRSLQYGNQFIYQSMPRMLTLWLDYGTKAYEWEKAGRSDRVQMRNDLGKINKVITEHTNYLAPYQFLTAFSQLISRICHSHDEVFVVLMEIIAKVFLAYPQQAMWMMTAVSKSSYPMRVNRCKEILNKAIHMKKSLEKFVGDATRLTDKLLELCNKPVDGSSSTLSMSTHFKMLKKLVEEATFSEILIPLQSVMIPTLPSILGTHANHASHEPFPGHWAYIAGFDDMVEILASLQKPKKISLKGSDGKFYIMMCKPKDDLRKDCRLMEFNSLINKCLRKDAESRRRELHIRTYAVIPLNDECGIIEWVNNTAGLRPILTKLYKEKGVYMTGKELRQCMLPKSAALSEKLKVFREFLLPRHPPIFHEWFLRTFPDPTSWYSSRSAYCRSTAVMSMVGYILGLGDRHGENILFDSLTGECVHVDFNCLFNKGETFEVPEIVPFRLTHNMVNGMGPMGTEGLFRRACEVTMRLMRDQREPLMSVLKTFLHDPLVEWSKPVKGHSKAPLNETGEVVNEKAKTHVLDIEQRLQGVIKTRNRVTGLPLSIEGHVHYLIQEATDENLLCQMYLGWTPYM
Details: not given
The method, boiled down: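 Radiometric 33P incorporation by 5 nM full-length ATR into 800 μM target peptide with 10 μM [γ-33P]ATP, in 50 mM Tris/HCl pH 7.5, 10 mM MgCl2, 1 mM DTT, 7% DMSO, 25° C. Compound pre-incubated 10 minutes; reaction stopped after 24 hours, captured on phosphocellulose. Ki(app) from non-linear regression of initial rates.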
For `Nc1nn2cc(F)cnc2c1C(=O)Nc1cnccc1-c1cccnc1Cl` [I-C-37, 2-amino-N-(2-chloro-[3,4′-bipyridin]-3′-yl)-6-fluoropyrazolo[1,5-a]pyrimidine-3-carboxamide], the Ki was in the range of 1000 to 5000 nM.

The same assay, now with this note: Ki(app), 5 nM full-length ATR, 10 μM ATP, 25° C.
Consider `N#CCc1cnc2c(C(=O)Nc3cnccc3N3CCCCCC3)c(N)nn2c1` [I-N-79, 2-amino-N-(4-(azepan-1-yl)pyridin-3-yl)-6-(cyanomethyl)pyrazolo[1,5-a]pyrimidine-3-carboxamide], for which the Ki lay in the range of 10 to 1000 nM.
In the case of `Nc1nn2cc(F)cnc2c1C(=O)Nc1cnccc1-c1ccc(C(=O)N2CCN(C3COC3)CC2)cc1F` [I-C-51, 2-amino-6-fluoro-N-(4-(2-fluoro-4-(4-(oxetan-3-yl)piperazine-1-carbonyl)phenyl)pyridin-3-yl)pyrazolo[1,5-a]pyrimidine-3-carboxamide], the Ki was in the range of 10 to 1000 nM.
Same read-out and setting: for `Cc1nc(C(F)(F)F)cn1-c1ccncc1NC(=O)c1c(N)nn2cc(F)cnc12` [I-N-30, 2-amino-6-fluoro-N-(4-(2-methyl-4-(trifluoromethyl)-1H-imidazol-1-yl)pyridin-3-yl)pyrazolo[1,5-a]pyrimidine-3-carboxamide] the value was 10 to 1000 nM; for `Nc1nn2cc(F)cnc2c1C(=O)Nc1cncc2c1CCNC2` [I-C-7, 2-amino-6-fluoro-N-(5,6,7,8-tetrahydro-2,7-naphthyridin-4-yl)pyrazolo[1,5-a]pyrimidine-3-carboxamide], 10 to 1000 nM.
Consider `CN1CCN(C(=O)C2CCN(c3c(Cl)cncc3NC(=O)c3c(N)nn4cc(F)cnc34)CC2)CC1` [I-G-3, 2-amino-N-(5-chloro-4-(4-(4-methylpiperazine-1-carbonyl)piperidin-1-yl)pyridin-3-yl)-6-fluoropyrazolo[1,5-a]pyrimidine-3-carboxamide], for which the Ki was in the range of 10 to 1000 nM.
For `CN1CCC(Oc2c(F)cncc2NC(=O)c2c(N)nn3cc(F)cnc23)CC1` [I-O-89, 2-amino-6-fluoro-N-(5-fluoro-4-((1-methylpiperidin-4-yl)oxy)pyridin-3-yl)pyrazolo[1,5-a]pyrimidine-3-carboxamide], the Ki was 10 to 1000 nM.
The same measure, in the same setting: for `Nc1nn2cc(Cl)cnc2c1C(=O)Nc1cnccc1O[C@H]1C[C@]2(CCN2)C1` [I-O-78, N-(4-((4s,6r)-1-azaspiro[3.3]heptan-6-yloxy)pyridin-3-yl)-2-amino-6-chloropyrazolo[1,5-a]pyrimidine-3-carboxamide] the value was 10 to 1000 nM; for `Nc1nn2cc(Cl)cnc2c1C(=O)Nc1cnccc1N1CCC(N2CCCC2)CC1` [I-N-105, 2-amino-6-chloro-N-(4-(4-(pyrrolidin-1-yl)piperidin-1-yl)pyridin-3-yl)pyrazolo[1,5-a]pyrimidine-3-carboxamide], 10 to 1000 nM; for `Nc1nn2cc(Cl)cnc2c1C(=O)Nc1cnccc1N1CCC(N2CCC2)CC1` [I-N-93, 2-amino-N-(4-(4-(azetidin-1-yl)piperidin-1-yl)pyridin-3-yl)-6-chloropyrazolo[1,5-a]pyrimidine-3-carboxamide], 10 to 1000 nM.
On to `Cn1ccnc1-c1ccncc1NC(=O)c1c(N)nn2cc(F)cnc12` [I-C-55, 2-amino-6-fluoro-N-(4-(1-methyl-1H-imidazol-2-yl)pyridin-3-yl)pyrazolo[1,5-a]pyrimidine-3-carboxamide], for which the Ki was 10 to 1000 nM.
As for `Nc1nn2cc(F)cnc2c1C(=O)Nc1cnccc1C1CCN(C2COC2)CC1` [I-C-10, 2-amino-6-fluoro-N-(4-(1-(oxetan-3-yl)piperidin-4-yl)pyridin-3-yl)pyrazolo[1,5-a]pyrimidine-3-carboxamide], the Ki was in the range of 10 to 1000 nM.
As to `Nc1nn2cc(F)cnc2c1C(=O)Nc1cnccc1N1CCC(C(=O)N2CCCC2)CC1` [I-G-83, 2-amino-6-fluoro-N-(4-(4-(pyrrolidine-1-carbonyl)piperidin-1-yl)pyridin-3-yl)pyrazolo[1,5-a]pyrimidine-3-carboxamide], the Ki lay within 10 to 1000 nM.
For the molecule `Nc1nn2cc(F)cnc2c1C(=O)Nc1cncc(F)c1N1CCN2C(=O)CC[C@@H]2C1` [I-N-182, (R)-2-amino-6-fluoro-N-(5-fluoro-4-(6-oxohexahydropyrrolo[1,2-a]pyrazin-2(1H)-yl)pyridin-3-yl)pyrazolo[1,5-a]pyrimidine-3-carboxamide], the Ki lay within 10 to 1000 nM.
`Nc1nn2cc(F)cnc2c1C(=O)Nc1cnccc1N1CCC(S(=O)(=O)N2CCN3CCC2CC3)CC1` [I-N-196, N-(4-(4-(1,4-diazabicyclo[3.2.2]nonan-4-ylsulfonyl)piperidin-1-yl)pyridin-3-yl)-2-amino-6-fluoropyrazolo[1,5-a]pyrimidine-3-carboxamide]: the Ki lay in the range of 10 to 1000 nM.
For the molecule `Nc1nn2cc(F)cnc2c1C(=O)Nc1cnccc1N1CCC(C(=O)N2CCC2)CC1` [I-G-77, 2-amino-N-(4-(4-(azetidine-1-carbonyl)piperidin-1-yl)pyridin-3-yl)-6-fluoropyrazolo[1,5-a]pyrimidine-3-carboxamide], the Ki lay in the range of 10 to 1000 nM.
Regarding `CN1CC2(CCN(c3ccncc3NC(=O)c3c(N)nn4cc(F)cnc34)CC2)OC1=O` [I-N-216, 2-amino-6-fluoro-N-(4-(3-methyl-2-oxo-1-oxa-3,8-diazaspiro[4.5]decan-8-yl)pyridin-3-yl)pyrazolo[1,5-a]pyrimidine-3-carboxamide], the Ki lay in the range of 10 to 1000 nM.
The same measure, in the same setting: the result for `CN(C)CCOc1cc(C(F)(F)F)ncc1NC(=O)c1c(N)nn2cc(Cl)cnc12` [I-O-71, 2-amino-6-chloro-N-(4-(2-(dimethylamino)ethoxy)-6-(trifluoromethyl)pyridin-3-yl)pyrazolo[1,5-a]pyrimidine-3-carboxamide] reads 10 to 1000 nM; that for `Nc1nn2cc(F)cnc2c1C(=O)Nc1cnccc1-c1ccncc1` [I-C-24, N-([4,4′-bipyridin]-3-yl)-2-amino-6-fluoropyrazolo[1,5-a]pyrimidine-3-carboxamide], 10 to 1000 nM; that for `N#CCc1cnc2c(C(=O)Nc3cnccc3N3CCOCC3)c(N)nn2c1` [I-N-81, 2-amino-6-(cyanomethyl)-N-(4-morpholinopyridin-3-yl)pyrazolo[1,5-a]pyrimidine-3-carboxamide], 10 to 1000 nM.
As to `CN(C)C(=O)[C@H]1CC[C@@H](Oc2ccncc2NC(=O)c2c(N)nn3cc(F)cnc23)CC1` [I-O-17, 2-amino-N-(4-(((1s,4s)-4-(dimethylcarbamoyl)cyclohexyl)oxy)pyridin-3-yl)-6-fluoropyrazolo[1,5-a]pyrimidine-3-carboxamide], the Ki was in the range of 10 to 1000 nM.
As for `COC1(C)CN(C(=O)C2CCN(c3c(F)cncc3NC(=O)c3c(N)nn4cc(F)cnc34)CC2)C1` [I-G-75, 2-amino-6-fluoro-N-(5-fluoro-4-(4-(3-methoxy-3-methylazetidine-1-carbonyl)piperidin-1-yl)pyridin-3-yl)pyrazolo[1,5-a]pyrimidine-3-carboxamide], the Ki was 10 to 1000 nM.
In the case of `CCN1CCCC1C(=O)N1CCN(c2c(F)cncc2NC(=O)c2c(N)nn3cc(F)cnc23)CC1` (stereo not drawn) [I-N-185, 2-amino-N-(4-(4-(1-ethylpyrrolidine-2-carbonyl)piperazin-1-yl)-5-fluoropyridin-3-yl)-6-fluoropyrazolo[1,5-a]pyrimidine-3-carboxamide], the Ki was 10 to 1000 nM.
For the molecule `N#CCc1cnc2c(C(=O)Nc3cnccc3N3CCCCC3)c(N)nn2c1` [I-N-84, 2-amino-6-(cyanomethyl)-N-(4-(piperidin-1-yl)pyridin-3-yl)pyrazolo[1,5-a]pyrimidine-3-carboxamide], the Ki was < 10 nM.
On to `CN1CC[C@H](Oc2ccncc2NC(=O)c2c(N)nn3cc(Cl)cnc23)C1` [I-O-69, (S)-2-amino-6-chloro-N-(4-((1-methylpyrrolidin-3-yl)oxy)pyridin-3-yl)pyrazolo[1,5-a]pyrimidine-3-carboxamide], for which the Ki was in the range of 10 to 1000 nM.
On to `Nc1nn2cc(F)cnc2c1C(=O)Nc1cnccc1N1CCN(C(=O)C2COC2)CC1` [I-N-249], for which the Ki was in the range of 10 to 1000 nM.
Turning to `COCCOc1ccncc1NC(=O)c1c(N)nn2cc(Cl)cnc12` [I-O-55, 2-amino-6-chloro-N-(4-(2-methoxyethoxy)pyridin-3-yl)pyrazolo[1,5-a]pyrimidine-3-carboxamide], the Ki fell in the range of 10 to 1000 nM.
For `CN1CCCC(Oc2ccncc2NC(=O)c2c(N)nn3cc(Cl)cnc23)C1` (stereo not drawn) [I-O-51, 2-amino-6-chloro-N-(4-((1-methylpiperidin-3-yl)oxy)pyridin-3-yl)pyrazolo[1,5-a]pyrimidine-3-carboxamide], the Ki lay within 10 to 1000 nM.
With `CN(C)C1CCCN(c2ccncc2NC(=O)c2c(N)nn3cc(Cl)cnc23)C1` (stereo not drawn) [I-N-40, 2-amino-6-chloro-N-(4-(3-(dimethylamino)piperidin-1-yl)pyridin-3-yl)pyrazolo[1,5-a]pyrimidine-3-carboxamide], the Ki lay within 10 to 1000 nM.
For `Nc1nn2cc(F)cnc2c1C(=O)Nc1cncc(F)c1N1CCN(C2CCOC2)CC1` (stereo not drawn) [I-N-122, 2-amino-6-fluoro-N-(5-fluoro-4-(4-(tetrahydrofuran-3-yl)piperazin-1-yl)pyridin-3-yl)pyrazolo[1,5-a]pyrimidine-3-carboxamide], the Ki was 10 to 1000 nM.
As to `Cn1ccc2c(NC(=O)c3c(N)nn4cc(F)cnc34)cncc21` [I-C-74, 2-amino-6-fluoro-N-(1-methyl-1H-pyrrolo[2,3-c]pyridin-4-yl)pyrazolo[1,5-a]pyrimidine-3-carboxamide], the Ki lay in the range of 10 to 1000 nM.
On to `CN(C)CC1CCN(c2ccncc2NC(=O)c2c(N)nn3cc(Cl)cnc23)CC1` [I-N-45, 2-amino-6-chloro-N-(4-(4-((dimethylamino)methyl)piperidin-1-yl)pyridin-3-yl)pyrazolo[1,5-a]pyrimidine-3-carboxamide], for which the Ki is 10 to 1000 nM.
Same read-out and setting: for `CN(C)CCOc1cc(Cl)ncc1NC(=O)c1c(N)nn2cc(Cl)cnc12` [I-O-68, 2-amino-6-chloro-N-(6-chloro-4-(2-(dimethylamino)ethoxy)pyridin-3-yl)pyrazolo[1,5-a]pyrimidine-3-carboxamide] the value was 10 to 1000 nM.
